This series in a line: Solubility of photoinitiator. The format is physicochemical.

The source of these data is patent publication US8449635B2, “Abrasive articles and methods for making same” (Saint-Gobain Abrasives, Inc., priority 2007, dated 2013).

Consider `Cc1cc(C)c(C(=O)P(=O)(C(=O)c2c(C)cc(C)cc2C)c2ccccc2)c(C)c1` [Irgacure 819, bis(2,4,6-trimethylbenzoyl) phenyl phosphine oxide], for which the “Solubility (wt %)” value is listed as under 5 wt %.
